In patent publication US9006188B2, “Co-crystals of dapagliflozin” (Mapi Pharma Ltd., priority 2013, dated 2015):
Read-outs that look alike come from different tables or passages of the source.

What was measured:
[1] = Hygroscopicity by Dynamic Vapor Sorption (DVS), sorption/desorption profile; format: physicochemical; details: for appearance of sample after DVS testing: after DVS at 25° C., 0-95% relative humidity
Description: (§1) The preparation of lactose co-crystal and asparagine co-crystal were scaled up and repeated (about 400 mg of dapagliflozin free form was dissolved in 26 ml of IPA) and XRPD, PLM, TGA, DSC, NMR and DVS analyses were conducted for physicochemical properties evaluation. Before physicochemical properties evaluation, the solids precipitated out were isolated and dried off at 40° C. for 4 hours in vacuum drier. After hygroscopicity test, the sample was retested by XRPD to determine if any form transformation during the DVS test.
(§2) The sorption/desorption profiles of dapagliflozin Form I were tested at 25° C. under 0-95% relative humidity. […] This sample was tested by XRPD.

[2] = XRPD after DVS at 25° C., 0-95% relative humidity
Description: as §1, §2

[3] = −20° C., tightly closed, 1.5 month
Description: Dapagliflozin was stored at −20° C., tightly closed. After being stored for 1.5 month, it was characterized by XRPD, MDSC and TGA to check if it is stable.

[4] = DVS 25° C., cycle 1, target 0.0 % P/Po
[5] = DVS 25° C., cycle 1, target 5.0 % P/Po
[6] = DVS 25° C., cycle 1, target 10.0 % P/Po
[7] = DVS 25° C., cycle 1, target 15.0 % P/Po
[8] = DVS 25° C., cycle 1, target 20.0 % P/Po
[9] = DVS 25° C., cycle 1, target 25.0 % P/Po
[10] = DVS 25° C., cycle 1, target 30.0 % P/Po
[11] = DVS 25° C., cycle 1, target 35.0 % P/Po
[12] = DVS 25° C., cycle 1, target 40.0 % P/Po
[13] = DVS 25° C., cycle 1, target 45.0 % P/Po
[14] = DVS 25° C., cycle 1, target 50.0 % P/Po
[15] = DVS 25° C., cycle 1, target 55.0 % P/Po
[16] = DVS 25° C., cycle 1, target 60.0 % P/Po
[17] = DVS 25° C., cycle 1, target 65.0 % P/Po
[18] = DVS 25° C., cycle 1, target 70.0 % P/Po
[19] = DVS 25° C., cycle 1, target 75.0 % P/Po
[20] = DVS 25° C., cycle 1, target 80.0 % P/Po
[21] = DVS 25° C., cycle 1, target 85.0 % P/Po
[22] = DVS 25° C., cycle 1, target 90.0 % P/Po
[23] = DVS 25° C., cycle 1, target 95.0 % P/Po

In the case of `CCOc1ccc(Cc2cc([C@@H]3O[C@H](CO)[C@@H](O)[C@H](O)[C@H]3O)ccc2Cl)cc1` [Form I, (2S,3R,4R,5S,6R)-2-[4-chloro-3-(4-ethoxybenzyl)phenyl]-6-(hydroxymethyl)tetrahydro-2H-pyran-3,4,5-triol, reference compound], the “weight gain from 0 to 95% RH” value ([1]; DVS 25° C., 0 to 95% RH) was 23.33%, the “Change In Mass (%) - ref, Desorption” value [1, 4] was 10.18% and the “Change In Mass (%) - ref, Sorption” value [1, 4] was 0.00%. The “Change In Mass (%) - ref, Desorption” value [1, 5] was 10.26%, the “Change In Mass (%) - ref, Hysteresis” value [1, 5] was 10.18% and the “Change In Mass (%) - ref, Sorption” value [1, 5] was 0.09%. The “Change In Mass (%) - ref, Desorption” value [1, 6] was 10.34%, the “Change In Mass (%) - ref, Hysteresis” value [1, 6] was 10.20% and the “Change In Mass (%) - ref, Sorption” value [1, 6] was 0.14%. The “Change In Mass (%) - ref, Desorption” value [1, 7] was 10.42%, the “Change In Mass (%) - ref, Hysteresis” value [1, 7] was 10.19% and the “Change In Mass (%) - ref, Sorption” value [1, 7] was 0.23%. The “Change In Mass (%) - ref, Desorption” value [1, 8] was 10.50%, the “Change In Mass (%) - ref, Hysteresis” value [1, 8] was 10.20% and the “Change In Mass (%) - ref, Sorption” value [1, 8] was 0.30%. The “Change In Mass (%) - ref, Desorption” value [1, 9] was 10.58%, the “Change In Mass (%) - ref, Hysteresis” value [1, 9] was 10.16% and the “Change In Mass (%) - ref, Sorption” value [1, 9] was 0.41%. For the same compound, the “Change In Mass (%) - ref, Desorption” value [1, 10] was 10.66%, the “Change In Mass (%) - ref, Hysteresis” value [1, 10] was 10.10% and the “Change In Mass (%) - ref, Sorption” value [1, 10] was 0.55%. For the same compound, the “Change In Mass (%) - ref, Desorption” value [1, 11] was 10.74%, the “Change In Mass (%) - ref, Hysteresis” value [1, 11] was 9.91% and the “Change In Mass (%) - ref, Sorption” value [1, 11] was 0.83%. For the same compound, the “Change In Mass (%) - ref, Desorption” value [1, 12] was 10.83%, the “Change In Mass (%) - ref, Hysteresis” value [1, 12] was 9.65% and the “Change In Mass (%) - ref, Sorption” value [1, 12] was 1.18%. The “Change In Mass (%) - ref, Desorption” value [1, 13] was 10.97%, the “Change In Mass (%) - ref, Hysteresis” value [1, 13] was 9.22% and the “Change In Mass (%) - ref, Sorption” value [1, 13] was 1.75%. The “Change In Mass (%) - ref, Desorption” value [1, 14] was 11.15%, the “Change In Mass (%) - ref, Hysteresis” value [1, 14] was 8.85% and the “Change In Mass (%) - ref, Sorption” value [1, 14] was 2.31%. The “Change In Mass (%) - ref, Desorption” value [1, 15] was 11.35%, the “Change In Mass (%) - ref, Hysteresis” value [1, 15] was 8.46% and the “Change In Mass (%) - ref, Sorption” value [1, 15] was 2.89%. For the same compound, the “Change In Mass (%) - ref, Desorption” value [1, 16] was 11.59%, the “Change In Mass (%) - ref, Hysteresis” value [1, 16] was 8.05% and the “Change In Mass (%) - ref, Sorption” value [1, 16] was 3.54%. The “Change In Mass (%) - ref, Desorption” value [1, 17] was 11.95%, the “Change In Mass (%) - ref, Hysteresis” value [1, 17] was 7.67% and the “Change In Mass (%) - ref, Sorption” value [1, 17] was 4.27%. The “Change In Mass (%) - ref, Desorption” value [1, 18] was 12.47%, the “Change In Mass (%) - ref, Hysteresis” value [1, 18] was 7.53% and the “Change In Mass (%) - ref, Sorption” value [1, 18] was 4.94%. For the same compound, the “Change In Mass (%) - ref, Desorption” value [1, 19] was 13.23%, the “Change In Mass (%) - ref, Hysteresis” value [1, 19] was 7.02% and the “Change In Mass (%) - ref, Sorption” value [1, 19] was 6.21%. The “Change In Mass (%) - ref, Desorption” value [1, 20] was 14.44%, the “Change In Mass (%) - ref, Hysteresis” value [1, 20] was 5.71% and the “Change In Mass (%) - ref, Sorption” value [1, 20] was 8.73%. The “Change In Mass (%) - ref, Desorption” value [1, 21] was 16.99%, the “Change In Mass (%) - ref, Hysteresis” value [1, 21] was 4.90% and the “Change In Mass (%) - ref, Sorption” value [1, 21] was 12.09%. For the same compound, the “Change In Mass (%) - ref, Desorption” value [1, 22] was 21.36%, the “Change In Mass (%) - ref, Hysteresis” value [1, 22] was 4.66% and the “Change In Mass (%) - ref, Sorption” value [1, 22] was 16.70%. The “Change In Mass (%) - ref, Desorption” value [1, 23] was 23.33%, the “Change In Mass (%) - ref, Sorption” value [1, 23] was 23.33% and the “appearance of sample after DVS testing” value [1] was “thick gel”. The “appearance of sample after DVS testing” value ([1]; listed as dapagliflozin Form I) was “thick gel-like material”, the hygroscopicity classification ([1]; based on DVS weight gain from 0 to 95% RH) was “very hygroscopic” and the “form transformation after DVS test (XRPD)” value [2] was “an amorphous form (not containing the 32 deg peak) was detected”. For the same compound, the “form transformation after DVS test (XRPD)” value ([2]; listed as dapagliflozin Form I) was “the amorphous was found after testing DVS”, the “stability on storage (form transformation by XRPD, MDSC, TGA)” value [3] was “stable” and the “stability on storage (form transformation by XRPD, MDSC, TGA)” value ([3]; listed as Dapagliflozin) was “no form transformation was detected”.
